Reference: ChEMBL document CHEMBL4828780, “Novel Compounds for Preventing SARS-CoV-2 Viral Replication and Treating COVID-19” (ACS Med Chem Lett, 2021)

assay: Inhibition of SARS-CoV 3C-like protease using Dabcyl-KTSAVLQ-SGFRKME-Edans peptide as substrate incubated for 60 mins by FRET assay

Structure (SMILES)	Ki [nM]
COc1cccc2[nH]c(C(=O)N[C@@H](CC(C)C)C(=O)N[C@@H](C[C@@H]3CCNC3=O)C(=O)COC(=O)CN(C)C)cc12	2.98
COc1cccc2[nH]c(C(=O)N[C@@H](CC(C)C)C(=O)N[C@@H](C[C@@H]3CCNC3=O)C(=O)COC(=O)[C@H]3CCCN3C)cc12	0.0321
COc1cccc2[nH]c(C(=O)N[C@@H](CC(C)C)C(=O)N[C@@H](C[C@@H]3CCNC3=O)C(=O)COC(=O)[C@@H]3CCCN3C)cc12	2.47
COc1cccc2[nH]c(C(=O)N[C@@H](CC(C)C)C(=O)N[C@@H](C[C@@H]3CCNC3=O)C(=O)COC(=O)[C@H]3CCCCN3C)cc12	1.42
COc1cccc2[nH]c(C(=O)N[C@@H](CC(C)C)C(=O)N[C@@H](C[C@@H]3CCNC3=O)C(=O)COC(=O)c3c(C)ncnc3C)cc12	0.928
COc1cccc2[nH]c(C(=O)N[C@@H](CC(C)C)C(=O)N[C@@H](C[C@@H]3CCNC3=O)C(=O)COC(=O)c3ccncc3)cc12	0.598
